From US20230167458A1, “FORSKOLIN-INDUCIBLE PROMOTERS AND HYPOXIA-INDUCIBLE PROMOTERS” (ASKLEPIOS BIOPHARMACEUTICAL, INC., priority 2020, published 2023)

Legend:
CHO-GS-KSV1 cell line = test: SEAP expression in stably transfected CHO-GS-KSV1, forskolin or NKH477 induction; type: cell-based, chinese hamster; settings: for optimal inducer concentration to induce expression from RTV-019: stably transfected CHO-GS-KSV1/CHO-K1SV, SEAP after 24 hours, 2, 5, 9, 18 or 32 pM tested
Experimental: The forskolin-inducible promoters were then tested in a stably transfected CHO-GS-KSV1 cell line.
• CD-CHO media (Life technologies, CAT #10743029) • Corning 125 mL Polycarbonate Erlenmeyer Flask with Vent Cap (CAT #734-1885). • Gene Pulser® Electroporation Cuvettes, 0.4 cm gap (BioRad, CAT #165-2088) • Gene Pulser Xcell Total System (BioRad, CAT, #1652660) • GS-vector DNA ([…] in 100 μL TE buffer) linearised with Sca1 • Suspension cultures of CHOK1SV GS-KO host cells.
Cell suspensions of 6×10^5 cells per mL were incubated on an orbital shaker set at 8% CO2, 20% O2, 37° C., 85% relative humidity and 140 rpm overnight. 2.86×10^7 cells were centrifuged at 200 g for 3 minutes. Media was then aspirated and cell pellet resuspended in 2 mL fresh CD-CHO media to obtain a concentration of 1.43×10^7 cells per mL. 700 μL of cell suspension was added to each of two electroporation cuvettes each containing […] of linearised DNA in 100 μL of sterile TE buffer (Thermofisher, 12090015). Each cuvette was electroporated, delivering a single pulse of 300V, […] with resistance to infinity. Immediately after delivery of pulse electroplated cells were transferred to Erlenmeyer 125 mL flask containing 20 mL of CD-CHO media pre-warmed to 37° C. Electroporated cells from two cuvettes are combined into a single 125 mL flask to generate one pool of cells. Cells are cultured on an orbital shaker set at 8% CO2, 20% O2, 37° C., 85% relative humidity and 140 rpm. Cells are transferred to fresh CD-CHO media 24 hours after transfection and cell cultures monitored and given fresh CD-CHO media every 2-4 days. Usually after about 10-14 days cell numbers will be high enough to start passaging.
The transfected DNA was the pXC-17.4 expression vector (Lonza Biologics plc) where one of the promoter constructs (or a control promoter (CMV-IE) have been cloned upstream of the secreted alkaline phosphatase (SEAP) gene, which had been cloned into the multiple cloning site within the vector expression cassette. Promoters were closed into the pXC-17.4 vector using Gibson assembly. The pXC-17.4 expression vector is designed for making stable cell lines in the CHO-GSK1SV cell line as it contains the […] gene which has been knocked out of the cell line. Therefore, selection of cells in glutamine drop-out medium will select for cells that have stably integrated the plasmid.
The responsiveness of the RTV-019 promoter to different concentrations of forskolin and […] was tested in the stably transfected CHO-GS-KSV1 cell line. To this end, the stably transfected CHO-GS cells were seeded at 500,000 cells/ml and allowed to grow for 24 hrs. At this point the cells were induced by addition of the respective concentrations of forskolin and NKH477 and SEAP expression was measured as described below after 24 hours.
The promoter activity and inducibility of FMP-02, FORCYB-001, RTV-017, FORCSV-10, FOR-CMC-009, FLP-01 and RTV-019 were also tested in the stably transfected CHO-GS-KSV1 cell line. To this end, the stably transfected CHO-GS cells were seeded at 500,000 cells/ml and allowed to grow for 24 hrs. At this point the cells were exposed to […] forskolin or […] NKH477 for 24 hours. After this point, the SEAP activity in the medium was assessed as described below.
SEAP Reporter Gene Assay, chemiluminescent (Roche, CAT #11 779 842 001) was used to measure SEAP activity as per the manufacturer's protocol. All reagents and samples were fully pre-equilibrated at room temperature. Culture supernatant was collected from the stably transfected CHO-GS at the specific time points (0 h and 24 h). The supernatant was diluted 1:4 in dilution buffer and heat treated at 65° C. for 30 minutes. The heat-treated sample was then centrifuged for 30 s at maximum speed. 50 μl of the heat-treated sample was then added to 5 μl of inactivation buffer and incubated for 5 min at room temperature. 50 μl of substrate reagent was then added and incubated for 10 min at room temperature. […]

[1] = system: Huh7 human liver cell line; test: Luciferase expression from promoters in pAAV vector (with ITRs) in Huh7, forskolin or NKH477 induction; parameters: fold induction with forskolin: dose or concentration left out as unconfirmed
Experimental: The forskolin-inducible promoters RTV-017, RTV-019 and FORCYB1 were then used to drive expression of luciferase in a pAAV vector in the Huh7 human liver cell line. […] This experiment was performed to investigate the effect of the Inverted Terminal Repeats (ITRs) on the activity of the promoters.
The cells were seeded, transfected and induced as described above. Luciferase expression was measured as described above. In this experiment, the cells were induced by using 20 pM forskolin or 7.2 pM of the water soluble derivative NKH477.

## C=C[C@@]1(C)CC(=O)[C@]2(O)[C@@]3(C)[C@@H](O)CCC(C)(C)[C@@H]3[C@H](O)[C@H](OC(C)=O)[C@@]2(C)O1 [Forskolin]
CHO-GS-KSV1 cell line
  optimal inducer concentration to induce expression from RTV-019: about 18 pM
CHO-GS-KSV1 cell line; listed as forskolin
  optimal inducer concentration to induce expression from RTV-019: 18 µM

## C=C[C@@]1(C)CC(=O)[C@]2(O)[C@@]3(C)[C@@H](O)CCC(C)(C)[C@@H]3[C@H](OC(=O)CCN(C)C)[C@H](OC(C)=O)[C@@]2(C)O1.Cl [NKH477, NKH 477]
CHO-GS-KSV1 cell line; stable CHO-GS-KSV1, 7.2 µM NKH477 vs 20 µM forskolin
  potency as inducer of the promoters compared with forskolin: slightly more potent inducer
CHO-GS-KSV1 cell line
  optimal inducer concentration to induce expression from RTV-019: 8 µM
CHO-GS-KSV1 cell line; listed as NKH 477
  optimal inducer concentration to induce expression from RTV-019: about 8 pM

B1: FORCYB1: synthetic forskolin-inducible promoter, SEQ ID NO: 45; 5× cAMPRE and 4× AP1 TFBS and YB-TATA (nucleic acid)
DNA: TGACGTCACGATTACCATTGACGTCACGATTACCATTGACGTCACGATTACCATTGACGTCACGATTACCATTGACGTCAGCGATTAAGATGACTCAGCGATTAAGATGACTCAGCGATTAAGATGACTCAGCGATTAAGATGACTCAGCGATTAATCCATATGCTCTAGAGGGTATATAATGGGGGCCACTAGTCTACTACCAGAAAGCTTGGTACCGAGCTCGGATCCAGCCACC
modifications: synthetic forskolin-inducible promoter
[1]; Huh7
  fold induction with forskolin: 65 fold
  luciferase activity without induction (background): low background activity
[1]; Huh7, 7.2 pM NKH477
  fold induction with NKH477: 30 fold
[1]; Huh7, or 7.2 pM NKH477
  luciferase activity following induction: high activity
